A short description of the data set: Thermogravimetric analysis (TGA) of crystalline forms. The conditions noted are these: TGA thermogram; ramp from 25° C. to 600° C. at 20° C./min, nitrogen purge. The class given is physicochemical. On the procedure:
Crystalline forms of the compound of Formula I were analyzed using a TA Instruments Thermogravimetric Analyzer, TGA Q500 with autosampler. The general experimental conditions for TGA were ramp from 25° C. 600° C. at 20° C./min; nitrogen purge, gas flow at 25 mL/min; platinum sample pan.

Two compounds from US20250011298A1, “CRYSTALLINE FORMS OF A CDK9 INHIBITOR AND USES THEREOF” (PRELUDE THERAPEUTICS INCORPORATED, priority 2021, published 2025) can be followed below.

For the compound `Cc1cnc(NC(=O)[C@H]2CCC[C@@H](NC(=O)CC#N)C2)cc1-c1cc(F)c2ncn(C(C)C)c2c1` [Form II], the “TGA: degradation occurring after” value is greater than 176 °C.
In the case of `Cc1cnc(NC(=O)[C@H]2CCC[C@@H](NC(=O)CC#N)C2)cc1-c1cc(F)c2ncn(C(C)C)c2c1` [Form I], the “TGA: degradation occurring after” value is greater than 176 °C.
